Values after ≈ are worked out from the molar mass of the structure shown.
Legend:
Trichophyton asteroides = assay: Minimum inhibitory concentration on Sabouraud's agar medium (Yamano et al. method); format: cell-based; settings: 168 h, agar plate, 27°C for 7 days
Procedure: (§1) Sabouraud's agar medium was used as a culture medium. (A liquid culture medium was prepared from the same ingredients except for agar).
(§2) This culture medium was prepared by dissolving the above ingredients under heat, and the medium thus prepared was sterilized under the conditions of 1.05 bar (15 Ibs.lin^2) for 15 minutes.
(§3) The microorganisms to be tested were fungi of the species Trichophyton mentagrophytes (A), Trichophyton asteroides (B) and Candida a/bicans (C). Each of these microorganisms was cultivated on the corresponding slant medium at 27°C for 7 days. A loopful of each of the microorganisms (A), (B) and (C) was triturated in a mortar, charged into a test tube containing 10 ml of physiological saline solution, and suspended therein with a thermomixer. Each of the suspensions thus prepared was used in the test.
(§4) 9 ml of the culture medium and 1 ml of a dilute sample were thoroughly admixed with each other in a Petri dish to prepare an agar plate, which was then streaked with the suspension containing each of the microorganisms to be tested by using a sterile platinum wire loop. The microorganisms (A), (B) and (C) thus inoculated on the agar plates were cultivated at 27°C for 7 days, and thereafter the MIC thereof was determined.

Candida albicans = assay: as above; format: cell-based; settings: 168 h, agar plate, 27°C for 7 days
Procedure: as §1, §2, §3, §4

[1] = system: Trichophyton mentagrophytes; assay: as above; format: cell-based; settings: 168 h, agar plate, 27°C for 7 days
Procedure: as §1, §2, §3, §4

P388 leukemia = assay: Antitumor activity against intraperitoneally transplanted P388 leukemia in mice; format: in vivo; settings: given 1 day and 5 days after transplantation of P388 leukemia 1 x 10^6 cells/mouse i.p., survival days of saline control group = 100
Procedure: For example, into CDF, mice were intraperitoneally transplanted P388 leukemia 1 x 10^6 cells/mouse as a suspension, and 2-bromo-6,7-dichloro-1-tetralone which is typical of the compounds of the present invention was administered to the mice 1 day and 5 days respectively after the transplantation. The effect of the test compound was evaluated in terms of the increase of life span (%) as calculated by determining the survival days of the control group consisting of mice administered with physiological saline solution as 100.

Toxicity (LD50) to mice = settings: mouse, in vivo

O=C1c2cc(Cl)cc(Cl)c2CCC1Br (centres unmarked) [2-bromo-5,7-dichloro-1-tetralone]
MIC (Trichophyton asteroides): 1.56 µg/mL (≈ 5.31 µM) | MIC (Candida albicans): 1.56 µg/mL (≈ 5.31 µM) | MIC [1]: 1.56 µg/mL (≈ 5.31 µM)

O=C1c2cc(Cl)c(Cl)cc2CCC1Br (centres unmarked) [2-bromo-6,7-dichloro-1-tetralone]
Survival time relative to saline control (T/C, control = 100) (P388 leukemia; Dose 10.0 mg/kg/day): 129% | Survival time relative to saline control (T/C, control = 100) (P388 leukemia; Dose 50.0 mg/kg/day): 140% | MIC (Trichophyton asteroides): 0.78 to 1.56 µg/mL (≈ 2.65 to 5.31 µM) | MIC (Candida albicans): 1.56 µg/mL (≈ 5.31 µM) | MIC [1]: 0.78 µg/mL (≈ 2.65 µM) | LD50 (Toxicity (LD50) to mice; Oral): > 1500 mg/kg | LD50 (Toxicity (LD50) to mice; ip, Intraperitoneal): 820 mg/kg | LD50 (Toxicity (LD50) to mice; sc, Subcutaneous): > 1500 mg/kg

O=C1c2cc(F)ccc2CCC1Br (centres unmarked) [2-bromo-7-fluoro-1-tetralone]
MIC (Trichophyton asteroides): 3.13 µg/mL (≈ 12.9 µM) | MIC (Candida albicans): 6.25 µg/mL (≈ 25.7 µM) | MIC [1]: 3.13 µg/mL (≈ 12.9 µM)

COC1=CC(=O)C[C@@H](C)[C@]12Oc1c(Cl)c(OC)cc(OC)c1C2=O [griseofulvin, reference compound]
MIC (Trichophyton asteroides): 6.25 µg/mL (≈ 17.7 µM) | MIC (Candida albicans): > 200 µg/mL | MIC [1]: 6.25 µg/mL (≈ 17.7 µM)
